According to patent publication US12409150B2, “pH-sensitive carbon nanoparticles, preparation method therefor, and drug delivery using same” (PCE Tech Co., Ltd., priority 2018, dated 2025):

How the values were obtained:
[1] = cited from earlier work
[2] = tested on: CT-26 (Mouse colon cancer) cells; experiment: In vivo photodynamic anticancer and immune anticancer effect, both cancer tissues for 15 days; parameters: species or system BALB/c mice; details: 0.4 mg/ml based on chlorine e6 i.v.
Source text: In order to confirm the anticancer effect in vivo and the anticancer effect due to photodynamic-based immunity induction of the pH-sensitive photodynamic therapeutic agent prepared in the above Example 5, CT-26 (Mouse colon cancer) cells were inoculated subcutaneously in the left leg of BALB/c mice (1×10^6 cells) and the right leg (5×10^5 cells). When the size of the cancer tissue reaches about 50 mm^3, a pH-sensitive photodynamic therapeutic agent, chlorine e6 alone formulation as a comparative group, pH-sensitive carbon nanoparticles without drug encapsulation, and PBS were injected intravenously at 0.4 mg/ml based on chlorine e6, and after 24 hours after intravenous injection, only the left cancer tissue was irradiated with a laser. This was repeated twice, and the laser was irradiated for 1000 seconds (100 J/cm^2) with an energy of 100 mW/cm^2. By measuring the size of both cancer tissues for 15 days, the photodynamic anticancer effect and the resulting immune anti-cancer effect were confirmed.

[3] = tested on: CT-26 (Mouse colon cancer) cells; experiment: In vivo behavior, in vivo fluorescence imaging for 24 hours; parameters: species or system BALB/c nude mice; details: intravenous, 0.4 mg/ml based on chlorine e6, 24 hours
Experimental: In order to confirm the in vivo behavior of the pH-sensitive photodynamic therapeutic agent prepared in the above Example 5, CT-26 (Mouse colon cancer) cells were inoculated into BALB/c nude mice. When the size of the cancer tissue reaches about 50-100 mm^3, a pH-sensitive photodynamic therapeutic agent (Ce6@CDs) and chlorine e6 alone formulation (Free Ce6) as a comparative group were injected intravenously at 0.4 mg/ml based on chlorine e6, and for 24 hours after then, the in vivo behavior was confirmed using in vivo fluorescence imaging (fluorescence-labeled bioimaging instrument) hourly.

[4] = Active oxygen generation, singlet oxygen sensor green (SOSG), 670 nm laser; details: for singlet oxygen generation: 670 nm laser, 20 mW/cm^2
Experimental: A singlet oxygen sensor green (SOSG) capable of detecting singlet oxygen was used to confirm the generation of active oxygen in particles of a pH-sensitive photodynamic therapeutic agent prepared in the above Example 5.
Specifically, 1 ml of a solution in which SOSG was dissolved and 1 ml of a solution in which a pH-sensitive carbon nanoparticle-based photodynamic therapeutic agent was dissolved were mixed, and a 670 nm laser was irradiated. The laser was irradiated with an energy of 20 mW/cm^2, and the fluorescence intensity was measured using a fluorescence spectrophotometer every 10 seconds (0.2 J/cm^2) to confirm the generation of active oxygen. In addition, in order to measure the efficiency of generating reactive oxygen species according to pH, 1 ml of a solution in which a pH-sensitive photodynamic therapeutic agent having pH 7.4, the pH in vivo and a pH of 6.5 in a cancer environment, was dissolved and 1 ml of a SOSG solution were mixed, and a 670 nm laser is irradiated. The laser was irradiated with an energy of 50 mW/cm^2, and the fluorescence intensity was measured using a fluorescence spectrophotometer every 10 seconds (0.5 J/cm^2) to confirm the generation of active oxygen species.

[5] = tested on: CT-26 (Mouse colon cancer) cells; experiment: Intracellular influx according to pH, confocal microscopy; assay type: cell-based; details: pH 7.4, 4 hours
Experimental: In order to confirm the influx effect into cancer cells at pH 7.4 and pH 6.5 using the pH-sensitive photodynamic therapeutic agent prepared in the above Example 5, CT-26 (Mouse colon cancer) cells were used. The pH-sensitive carbon nanoparticle-based photodynamic therapeutic agent was treated for 4 hours in the culture solutions of pH 7.4 and pH 6.5, respectively, and chlorine e6 was treated alone as a control group for comparative evaluation. The intracellular influx was analyzed by fluorescence (460, 665 nm) of carbon nanoparticles and chlorine e6 using confocal microscopy.

[6] = tested on: CT-26 (Mouse colon cancer) cells; experiment: Photodynamic cancer cell killing at pH 6.5, MTT assay; details: pH 6.5, 1 μg/ml based on chlorine e6, 670 nm laser irradiated (+), 2 J/cm^2
Experimental: In order to confirm the cancer cell killing effect of the pH-sensitive photodynamic therapeutic agent prepared in the above Example 5 at a cancer environment pH of 6.5, CT-26 (Mouse colon cancer) cells were used. Samples of the pH-sensitive carbon nanoparticle-based photodynamic therapeutic agent and chlorine e6 alone as other comparative group and carbon nanoparticles without pH sensitivity (Comparative Example 1) were treated with 1 μg/ml based on the concentration of chlorine e6 in the pH 6.5 culture medium, equally and a 670 nm laser was irradiated thereto. The laser was irradiated for […] (2 J/cm^2) with an energy of 50 mW/cm^2. Cell death was performed using the MTT assay, and analyzed at 570 nm using a microplate reader.

[7] = tested on: HCT-116 (Human colon cancer) cells; experiment: Inhibition of cancer growth in vivo, cancer tissue size for 15 days; parameters: species or system BALB/c mice; details: intravenous, 2 mg/ml based on doxorubicin
Experimental: After that, the size of the cancer tissue was measured for 15 days to confirm the anticancer effect.

[8] = tested on: HCT-116 (human colon cancer); experiment: Cancer cell killing, MTT assay at pH 7.4 and pH 6.5; assay type: cell-based; details: regardless of pH (7.4, 6.5)
Experimental: (§1) In order to confirm the cancer cell killing effect of the CA and API-based pH-sensitive carbon nanoparticle drug carrier encapsulated with doxorubicin prepared in Example 4, HCT-116 (human colon cancer), SKBR-3 (human breast cancer), PANC-1 (human pancreas cancer) cells were used. The pH-sensitive carbon nanoparticle drug carrier was treated by concentration of doxorubicin in culture solutions of pH 7.4 and pH 6.5, respectively, and the comparison group was comparatively evaluated by treating doxorubicin alone by concentration. Cell death was performed using the MTT assay, and analyzed at 490 nm using a microplate reader.

[9] = tested on: SKBR-3 (human breast cancer); experiment: as above; assay type: cell-based; details: regardless of pH (7.4, 6.5)
Experimental: as §1

[10] = tested on: PANC-1 (human pancreas cancer); experiment: as above; assay type: cell-based; details: regardless of pH (7.4, 6.5)
Experimental: as §1

NCCCn1ccnc1 [API, 1-(3-aminopropyl) imidazole]
pKa value [1]: 6.9

C=Cc1c(C)c2cc3nc(c(CC(=O)O)c4[nH]c(cc5nc(cc1[nH]2)C(C)=C5CC)c(C)c4C(=O)O)[C@@H](CCC(=O)O)[C@@H]3C [Free Ce6, chlorine e6]
cancer growth regardless of laser irradiation [2]: cancer rapidly grows
in vivo fluorescence behavior [3]: fluorescence quickly disappeared
singlet oxygen generation [4]: hardly produce singlet oxygen
singlet oxygen generation according to pH ([4]; pH 7.4 and pH 6.5, 670 nm laser, 50 mW/cm^2): hardly generated singlet oxygen
degree of influx into cells [5]: similar
cell death rate [6]: 50%

COc1cccc2c1C(=O)c1c(O)c3c(c(O)c1C2=O)C[C@@](O)(C(=O)CO)C[C@@H]3O[C@H]1C[C@H](N)[C@H](O)[C@H](C)O1 [Free DOX, doxorubicin]
cancer growth in vivo [7]: cancer continued to grow
concentration at which cells died [8]: about 50 ug/ml
concentration at which cells died [9]: about 50 ug/ml
concentration at which cells died [10]: about 50 ug/ml

pheophorbide a [Pheo A]
singlet oxygen generation [4]: hardly produce singlet oxygen
